Key:
[1] = test system: Barnyardgrass; experiment: Test B pre-emergence on Fallsington silt loam; type: in vivo, Echinochloa crusgalli; conditions: 0.12 kg/ha, 28 days
Text: (§1) Two plastic bulb pans were filled with fertilized and limed Fallsington silt loam soil. One pan was planted with corn, sorghum, Kentucky bluegrass and several grassy weeds. The other pan was planted with cotton, soybeans, purple nutsedge (Cyperus rotundus), and several broadleaf weeds. The following grassy and broadleaf weeds were planted: crabgrass (Digitaria sanguinalis), barnyardgrass (Echinochloa crusgalli), wild oats (Avena fatua), johnsongrass (Sorghum halepense), dallisgrass (Paspalum dilatatum), giant foxtail (Setaria faberii), cheatgrass (Bromus secalinus), mustard (Brassica arvensis), cocklebur (Xanthium pensylvanicum), pigweed (Amaranthus retroflexus), morningglory (Ipomoea hederacea), cassia (Cassia tora), teaweed (Sida spinosa), velvetleaf (Abutilon theophrasti), and jimsonweed (Datura stramonium). A 12.5 cm diameter plastic pot was also filed with prepared soil and planted with rice and wheat. Another 12.5 cm pot was planted with sugarbeets. The above four containers were treated pre- emergence with several test compounds within the scope of the invention.
(§2) Twenty-eight days after treatment, the plants were evaluated and visually rated for response to the chemical treatments utilizing the rating system described previously for Test A. The data are summarized in Table B.

[2] = test system: Johnsongrass; experiment: Test B pre-emergence on Fallsington silt loam; type: in vivo, Sorghum halepense; parameters: scale not given here; conditions: 0.12 kg/ha, 28 days
Text: as §1, §2

[3] = test system: Giant Foxtail; experiment: Test B pre-emergence on Fallsington silt loam; type: in vivo, Setaria faberii; conditions: 0.12 kg/ha, 28 days
Text: as §1, §2

[4] = test system: Ky. bluegrass; experiment: Test B pre-emergence on Fallsington silt loam; type: in vivo, Kentucky bluegrass; parameters: scale not given here; conditions: 0.12 kg/ha, 28 days
Text: as §1, §2

[5] = test system: Corn; experiment: Test B pre-emergence on Fallsington silt loam; type: in vivo; parameters: scale not given here; conditions: 0.12 kg/ha, 28 days
Text: as §1, §2

[6] = test system: Sugarbeets; experiment: Test B pre-emergence on Fallsington silt loam; type: in vivo; parameters: scale not given here; conditions: 28 days
Text: as §1, §2

[7] = test system: Wheat; experiment: Test B pre-emergence on Fallsington silt loam; type: in vivo; parameters: scale not given here; conditions: 0.03 kg/ha, 28 days
Text: as §1, §2

[8] = test system: Mustard; experiment: Test B pre-emergence on Fallsington silt loam; type: in vivo, Brassica arvensis; conditions: 28 days
Text: as §1, §2

[9] = test system: Cocklebur; experiment: Test B pre-emergence on Fallsington silt loam; type: in vivo, Xanthium pensylvanicum; conditions: 28 days
Text: as §1, §2

[10] = test system: Pigweed; experiment: Test B pre-emergence on Fallsington silt loam; type: in vivo, Amaranthus retroflexus; conditions: 0.03 kg/ha, 28 days
Text: as §1, §2

[11] = test system: Nutsedge; experiment: Test B pre-emergence on Fallsington silt loam; type: in vivo, Cyperus rotundus; conditions: 0.03 kg/ha, 28 days
Text: as §1, §2

[12] = test system: Sorghum; experiment: Test B pre-emergence on Fallsington silt loam; type: in vivo; conditions: 0.03 kg/ha, 28 days
Text: as §1, §2

[13] = test system: Morningglory; experiment: Test B pre-emergence on Fallsington silt loam; type: in vivo, Ipomoea hederacea; conditions: 0.03 kg/ha, 28 days
Text: as §1, §2

[14] = test system: Wheat; experiment: Test C pre-emergence on Fallsington silt loam soil; type: in vivo; conditions: 0.06 kg/ha, 28 days
Text: The high herbicidal activity of two of the compounds from within the scope of the invention is evident from the results obtained in this test. The experiment concerned pre-emergence applications on soil. The containers used were 25 cm diameter plastic pots filled with Fallsington silt loam. One set of pots was planted to weeds, the seeds of which were uniformly mixed with the top 1.2 cm layer of soil. The species selected were: johnsongrass (Sorghum halepense), barnyardgrass (Echinochloa crusgalli), crabgrass (Digitaria sanguinalis), giant foxtail (Setaria faberii), velvetleaf (Abutilon theophrasti), jimsonweed (Datura stramonium), mustard (Brassica arvensis), and pigweed (Amaranthus retroflexus). Another set of pots were planted to the following crops with from one to four species per pot: corn (planting depth 3.7 cm), cotton, soybeans, sunflower, Clinton oats, wheat, Black Valentine beans, rice, sorghum, peas, flax, and peanuts (all at 2.5 cm depth), cucumbers, cabbage, alfalfa, safflower, sugarbeets, tomato, spinach, barley, and Kentucky bluegrass (all at 1.2 cm depth). Immediately after planting, the test chemical was applied to the soil surfaces dissolved in a non-phytotoxic solvent. One pot from the weed phase and one of each of the crop species were left untreated for the purpose of comparison. The treated and untreated pots were promptly watered with approximatley 4 mm of simultated rainfall and then held in a greenhouse for several weeks. Visual weed and crop response ratings were made 28 days after treatment utilizing the rating system as described above for Test A. The data are given in Table C.

[15] = test system: Corn; experiment: Test F over-the-top soil/foliage treatment; type: in vivo; conditions: soil/foliage spray; 0.06 kg/ha; ~14 days
Procedure: (§3) The test chemicals, dissolved in a non-phytotoxic solvent, were applied in an overall spray to the foliage and surrounding […] of selected plant species. […] Approximately fourteen days after treatment, all species were visually compared to untreated controls and rated for response to treatment.
(§4) All plant species were seeded in Woodstown sandy loam soil and grown in a greenhouse. The following species were grown in soil contained in plastic pots (25 cm diameter by 13 cm deep): soybeans, cotton, alfalfa, corn, rice, wheet, sorghum, velvetleaf (Abutilon theophrasti), sesbania (Sesbania exaltata), Cassia (Cassia tora), morningglory (Ipomoea hederacea), jimsonweed (Datura stramonium), cocklebur (Xanthium pensylvanicum), crabgrass (Digitaria spp.), nutsedge (Cyperus rotundus), barnyardgrass (Echinochloa crusgalli), giant foxtail (Setaria faberii) and wild oats (Avena fatua). The following species were grown in soil in a paper cup (12 cm diameter by 13 cm deep): sunflower, sugarbeets, and mustard. All plants were sprayed approximately 14 days after planting.

[16] = test system: Rice; experiment: Test F over-the-top soil/foliage treatment; type: in vivo; conditions: soil/foliage spray; 0.06 kg/ha; ~14 days
Procedure: as §3, §4

[17] = test system: Soybeans; experiment: Test F over-the-top soil/foliage treatment; type: in vivo; conditions: soil/foliage spray; 0.06 kg/ha; ~14 days
Procedure: as §3, §4

[18] = test system: Velvetleaf; experiment: Test F over-the-top soil/foliage treatment; type: in vivo, Abutilon theophrasti; conditions: soil/foliage spray; 0.015 kg/ha; ~14 days
Procedure: as §3, §4

[19] = test system: Sesbania; experiment: Test F over-the-top soil/foliage treatment; type: in vivo, Sesbania exaltata; parameters: scale not given here; conditions: soil/foliage spray, ~14 days
Procedure: as §3, §4

[20] = test system: Morningglory; experiment: Test F over-the-top soil/foliage treatment; type: in vivo, Ipomoea hederacea; conditions: soil/foliage spray; 0.06 kg/ha; ~14 days
Procedure: as §3, §4

[21] = test system: Alfalfa; experiment: Test F over-the-top soil/foliage treatment; type: in vivo; parameters: scale not given here; conditions: soil/foliage spray, ~14 days
Procedure: as §3, §4

[22] = test system: Sorghum; experiment: Test F over-the-top soil/foliage treatment; type: in vivo; parameters: scale not given here; conditions: soil/foliage spray; 0.06 kg/ha; ~14 days
Procedure: as §3, §4

[23] = test system: Jimsonweed; experiment: Test F over-the-top soil/foliage treatment; type: in vivo, Datura stramonium; conditions: soil/foliage spray; 0.06 kg/ha; ~14 days
Procedure: as §3, §4

[24] = test system: Crabgrass; experiment: Test F over-the-top soil/foliage treatment; type: in vivo, Digitaria spp.; parameters: scale not given here; conditions: soil/foliage spray; 0.06 kg/ha; ~14 days
Procedure: as §3, §4

[25] = test system: Nutsedge; experiment: Test F over-the-top soil/foliage treatment; type: in vivo, Cyperus rotundus; parameters: scale not given here; conditions: soil/foliage spray, ~14 days
Procedure: as §3, §4

[26] = test system: Barnyardgrass; experiment: Test F over-the-top soil/foliage treatment; type: in vivo, Echinochloa crusgalli; parameters: scale not given here; conditions: soil/foliage spray; 0.06 kg/ha; ~14 days
Procedure: as §3, §4

[27] = test system: Wheat; experiment: Test F over-the-top soil/foliage treatment; type: in vivo, wheet; parameters: scale not given here; conditions: soil/foliage spray, ~14 days
Procedure: as §3, §4

[28] = test system: Giant Foxtail; experiment: Test F over-the-top soil/foliage treatment; type: in vivo, Setaria faberii; parameters: scale not given here; conditions: soil/foliage spray; 0.06 kg/ha; ~14 days
Procedure: as §3, §4

[29] = test system: Wild Oats; experiment: Test F over-the-top soil/foliage treatment; type: in vivo, Avena fatua; parameters: scale not given here; conditions: soil/foliage spray; 0.06 kg/ha; ~14 days
Procedure: as §3, §4

With `COc1cc(C)nc(NC(=O)NS(=O)(=O)c2ccccc2OS(C)(=O)=O)n1` [Compound 2, 2-Hydroxy-N-[(4-methoxy-6-methylpyrimidin-2-yl)aminocarbonyl]benzenesulfonamide, methanesulfonate] the Barnyardgrass response rating [1] was 10C, the Johnsongrass response rating [2] was 10C and the “Giant Foxtail response rating” value [3] was 10C. The “Ky. bluegrass response rating” value [4] was 10C, the Corn response rating [5] was 10C and the Sugarbeets response rating ([6]; 0.03 kg/ha) was 10C. The Sugarbeets response rating ([6]; 0.12 kg/ha) was 10C, the Wheat response rating [7] was 5G and the Mustard response rating ([8]; 0.03 kg/ha) was 10C. For the same compound, the Mustard response rating ([8]; 0.12 kg/ha) was 10C, the Cocklebur response rating ([9]; 0.03 kg/ha) was 5G and the Cocklebur response rating ([9]; 0.12 kg/ha) was 10C. For the same compound, the Pigweed response rating [10] was 7G, the Nutsedge response rating [11] was 6G and the Sorghum response rating [12] was 10C. For the same compound, the Morningglory response rating [13] was 7G, the Wheat response rating [14] was 5G and the Corn response rating [15] was 10C. For the same compound, the Rice response rating [16] was 10C, the Soybeans response rating [17] was 9C and the Velvetleaf response rating [18] was 5G. It also gave a Sesbania response rating ([19]; 0.015 kg/ha) of 9C, a Sesbania response rating ([19]; 0.06 kg/ha) of 10C and a Morningglory response rating [20] of 10C. For the same compound, the Alfalfa response rating ([21]; 0.015 kg/ha) was 7C, the Alfalfa response rating ([21]; 0.06 kg/ha) was 10C and the Sorghum response rating [22] was 10C. It also gave a Jimsonweed response rating [23] of 10C, a Crabgrass response rating [24] of 10C and a Nutsedge response rating ([25]; 0.015 kg/ha) of 2C. It also gave a Nutsedge response rating ([25]; 0.06 kg/ha) of 10C, a Barnyardgrass response rating [26] of 10C and a Wheat response rating ([27]; 0.015 kg/ha) of 1C. For the same compound, the Wheat response rating ([27]; 0.06 kg/ha) was 9C, the “Giant Foxtail response rating” value [28] was 10C and the “Wild Oats response rating” value [29] was 10C.

Reference: patent publication EP0044212B1, “Herbicidal o-alkylsulfonyloxy- and o-alkylsulfonylamino-benzenesulfonamides” (E.I. DU PONT DE NEMOURS AND COMPANY, priority 1980, dated 1982)
